Read-outs that look alike come from different tables or passages of the source.
Assays:
anesthetized dog [1] = assay: Hemodynamic (cardiovascular) tolerance in the anesthetized dog; type: in vivo; settings: i.v., cumulative doses 0.3 to 10 mg/kg; vs control period
Method: The hemodynamic tolerance of the derivatives of the invention was studied on dogs anesthesized with sodium pentobarbital. Endocavitary pressures were measured by means of catheters connected to Statham sensors while external recording of the electrocardiogram (E.C.G.) provided the measurement of cardiac frequency. Cardiac flow was measured by means of an electromagnetic sensor placed on the beginning of the aorta. The total peripheral resistances R were calculated from the value of the average aortic pressure (P) and the cardiac flow (Q) in accordance with the formula R=P/Q.
After measurement of the parameters during a control period, the derivatives were injected intravenously in cumulative doses (30 minute interval between doses). The variations of the parameters in relation to the control period were measured within 20 and 30 minutes after each injection and are expressed as a percentage of variation in relation to the control.
Table 2 summarizes the variations in hemodynamic parameters observed between the first and last injections.

ventricular arrhythmias = assay: Harris test (ventricular arrhythmias after experimental infarct); type: in vivo, dog; settings: 3 mg/kg i.v.
From the text: (§1) Narcisse et al, Ann. Pharma. Fr., 37, 325-330 (1979), in the rat by the aconitine intoxication test of S. Witchitz et al, Coeur Med. Int., X(2), 281-286, (1971) and in the dog by the Harris test described in Circulation, 1, 1318, (1950) and by the test with adrenalin after experimental infarct of I. J. Steffe et al, J. Pharmacol. Exp. Ther., 214, 50-57 (1980).
The ligature of the anterior interventricular artery in the anesthetized dog causes the appearance of an experimental infarct of the myocardium followed by considerable ventricular arrhythmias.
The dogs were studied 24 to 48 hours after the intervention. The electrocardiogram (ECG) was then recorded permanently, the conscious dog being at rest in an isolated laboratory. After a period of 3 hours of ECG recording, allowing for the measurement of the cardiac frequency of the dog the frequency of ventricular extrasystoles (ESV)--pre-treatment control period--the derivative to be studied was injected intravenously for 1 minute. Continuous recording of the ECG enabled, in the hours following the injection, measurement of the frequency of the ESV/mn for successive periods from 30 to 60 min. The number of ESV per minute measured for 3 hours during the control period varied from 66 to 172/min with an average of 111/min. […] The length of this antiarrhythmic effect observed varied depending on the derivatives from 1 hour to more than 5 hours. For example, the percentage decrease of the ESV/min in the case of the derivative of Example 11 (cumulative dose 14 mg/kg) was 96% (0 to 1/2 hour), 50% (1/2 to 1 hour) and 68% (1 to 2 hour). The corresponding values for the derivative of Example 4 (3 mg/kg) were 44%, 55% and 45%, respectively.

[2] = tested on: ventricular arrhythmias and death induced by the aconitine; assay: Aconitine intoxication test in the anesthetized rat; type: in vivo; settings: i.v., vs untreated control
From the text: as §1
The anesthetized rat was intoxicated with an intravenous perfusion of aconitine while its electrocardiogram (ECG) was permanently recorded. During the perfusion at constant rate, the time necessary for the appearance of ventricular arrhythmias, successive extrasystoles (ESV), then stable ventricular tachycardium (TV) and the time within which the animal died were measured.
The animals were divided into a control group (untreated) and treated groups (different doses). The results are expressed as a percentage of prolonging the time of appearance of the arrhythmias and of death of the treated groups in reaction to the control group.
The results obtained are shown in Table 4 below and express the percentage of prolongation of the time of appearance of ventricular arrhythmias (ventricular extrasystoles and ventricular tachycardiums), and of the death, induced by the aconitine after an intravenous injection (I.V.) of several derivatives of the invention, in relation to a group of untreated control animals.

[3] = Acute toxicity in the mouse (LD 50, Litchfield and Wilcoxon); settings: in vivo
Method: The acute toxicity of the derivatives of the invention were studied by intraperitoneal administration (I.P.) on the mouse (10 animals, 5 males and 5 females per dose) and calculation of the lethal dose 50 (LD 50) in accordance with the method of Litchfield and Wilcoxon (J. Pharmacol. 96, 99-113 (1949)).
In certain cases (derivatives of Examples 4, 6, 9), the LD 50 was also calculated after oral administration (P.O.) of the derivatives.

anesthetized dog [4] = assay: Electrophysiological studies on the anesthetized dog; type: in vivo; settings: i.v., doses 0.3 to 14.3 mg/kg; 2 evaluations
Method: This study was carried out on dogs anesthetized with pentobarbital, with a closed thorax, by means of bipolar catheter-electrodes introduced into the cardiac cavities by transcutaneous venous and arterial means. The surface electrocardiogram (standard derivation D2) is recorded permanently.
By means of a programmable JANSEN (R) stimulator, the following parameters may be measured:
spontaneous cardiac frequency (FC);
sinus recuperation time (SRTc) after auricular stimulation imposed at 160 b/mn for 1 mn;
intracardiac conduction times (auriculohisien at a constant frequency, His-Purkinje, intraventricular);
the effective and functional refractory periods measured at an imposed constant frequency, with the extrastimulus method.
During the electrophysiological study, the derivatives were injected intravenously for 2 minutes for each dose and at 30 minute intervals between each dose. The doses are expressed as a cumulative value and as a base term.
The measurement of the various parameters was carried out before the injection of the first dose (control period) and from 10 to 28 minutes after the injection of each dose of the substance. The results are expressed as a percentage of variation in relation to the control period.

[5] = Lawson test (cardiac antifibrillatory power, chloroform); settings: in vivo, ip; mouse, intraperitoneal; read-out: Maximum Dose Tolerated
[6] = tested on: ventricular arrhythmias with adrenalin; assay: Test with adrenalin after experimental infarct; type: in vivo, dog; settings: 14.3 mg/kg, control period 74% of ESV
From the text: as §1
2 to 5 days after an experimental infarct, the effects of discontinuous injections (in intravenous bolus of […] of basic adrenalin) of adrenalin were observed on the electrocardioagram of the conscious dog.
During a first phase (control) of the experiment, three successive injections of adrenalin were given and, in the 2 minutes following each injection, the frequency of the ventricular extrasystoles was measured. In this manner, by increasing the dose of adrenalin as necessary, it was possible to determine the dose which caused the appearance of ventricular extrasystoles at a higher frequency than or equal to half the total number of ventricular systoles.
After injection of the derivative to be tested, the same dose of adrenalin was reinjected after 5 minutes, then 30 minutes, 60 minutes, 90 minutes, etc., and its effects were compared to those observed during the control period.
The results therein are expressed as a percentage of extrasystoles (on the total number of systoles) measured during the 2 minutes following the injection of adrenalin before and after the administration of the derivative to be tested.

[7] = tested on: anoxic ventricular fibrillation; assay: Lawson test (cardiac antifibrillatory power, chloroform); type: in vivo; settings: ip; mouse, intraperitoneal, 10 minutes before chloroform
Method: The Lawson test is a test for the study of the cardiac antifibrillatory power of the derivatives. The mice (20 per group) received an intraperitoneal injection of the derivative 10 minutes before being placed in a chloroform-saturated atmosphere. Upon respiratory arrest, the thorax was opened (5 to 10 seconds) and whether or not the heart was in ventricular fibrillation was checked. The efficacy dose 50 (ED 50) of the derivative being studied is the dose which protects half the mice against anoxic ventricular fibrillation.

## CC1(NC(=O)CCc2ccccc2)C2CC3CC1CN(C2)C3(C)C (stereo not drawn) [Example 4, N-(3-phenylpropionyl)-4-amino-4,8,8-trimethyl-1-azaadamantane]
Anesthetized dog [1]
  Cardiac Flow, percentage of variation: -7 to -23%
  Cardiac Frequency, percentage of variation: -7%
  Systolic Arterial Pressure, percentage of variation: -7 to -28%
  Total Peripheral Resistances, percentage of variation: 0 to -13%
  dp/dt/p Left Ventricular, percentage of variation: 0 to -40%
Ventricular arrhythmias; 0 to 1/2 hour
  Percentage decrease of the ESV/min: 44%
Ventricular arrhythmias; 1/2 to 1 hour
  Percentage decrease of the ESV/min: 55%
Ventricular arrhythmias; 1 to 2 hour
  Percentage decrease of the ESV/min: 45%
[2]; 5 mg/kg
  Prolongation of time of appearance of ventricular extrasystoles (ESV): +37%
  Prolongation of time of appearance of ventricular tachycardium (TV): +50%
  Prolongation of time to death: +25%
[2]; 10 mg/kg
  Prolongation of time of appearance of ventricular extrasystoles (ESV): +60%
  Prolongation of time of appearance of ventricular tachycardium (TV): +86%
  Prolongation of time to death: +39%
[2]; 20 mg/kg
  Prolongation of time of appearance of ventricular extrasystoles (ESV): +103%
  Prolongation of time of appearance of ventricular tachycardium (TV): +89%
  Prolongation of time to death: +65%
[3]; ip, intraperitoneal, read-out: LD 50 I.P.
  LD50: 375 mg/kg
[3]; oral, read-out: LD 50 P.O.
  LD50: 2400 mg/kg
Anesthetized dog [4]
  F.C. (cardiac frequency), variation: 0%
  HV (time of His-Purkinje conduction), variation: 0 to +80%
  PREA (effective auricular refractory period), variation: +10 to +35%
  PREV (effective ventricular refractory period), variation: 0 to +10%
  QRS (time of intraventricular conduction), variation: 0 to +15%
  St-H (time of auriculohisien conduction), variation: +7 to +10%
[5]
  MTD: 200 mg/kg
[6]; 5 min
  ESV Percentage at 5 min: 36%
[6]; 30 min
  ESV Percentage at 30 min: 59%
[6]; 60 min
  ESV Percentage at 60 min: 60%
[7]
  ED50: 72 mg/kg

— patent publication US4578382A, “4-acylamino-1-azaadamantanes, and compositions for use thereof in medicine” (Etablissements Nativelle S.A., priority 1981, dated 1986)
